A word on the IC50: it is the concentration that inhibits the measured activity by half. The melting point is the temperature of the solid-liquid transition.

From patent US8946266B2, “Substituted triazole and imidazole derivatives as gamma secretase modulators” (Janssen Pharmaceuticals, Inc., priority 2009, dated 2015) come the findings set out here.

Where only a bound is given, the exact number is not on record here.

Data set [1] deals with Aβtotal. Description: γ-secretase-modulating activity, Method 2: Aβtotal Alphalisa in supernatant of SKNBE2 cells carrying APP 695-wild type (Table 3b). In kind it is cell-based. The settings on record: overnight, read-out: IC50 Aβtot. Put shortly: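 Secreted Aβtotal was quantified by AlphaLISA pairing an N-terminal antibody (JRF/AβN/25) with biotinylated mid-region 4G8. Wild-type APP 695 SKNBE2 cells received serially varied compound overnight at 37 °C; IC50 came from a 4-parameter nonlinear regression of percent of control against log dose.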
A general note: Alpha assays give light when donor and acceptor beads are brought close together.

Data set [2] relates to Aβ42. Description: γ-secretase-modulating activity, Method 1: Aβ42 sandwich ELISA in supernatant of SKNBE2 cells carrying APP 695-wild type (Table 3a). In kind it is cell-based. The settings on record: 18 h, averaged IC50 values. The method, then: (§1) Pharmacology A) Screening of the Compounds of the Invention for γ-Secretase-Modulating Activity A1) Method 1
(§2) Screening was carried out using SKNBE2 cells carrying the APP 695-wild type, grown in Dulbecco's Modified Eagle's Medium/Nutrient mixture F-12 (DMEM/NUT-mix F-12) (HAM) provided by Gibco (cat no. 31330-38) containing 5% Serum/Fe supplemented with 1% non-essential amino acids. Cells were grown to near confluency.
(§3) The screening was performed using the assay as described in Citron et al (1997) Nature Medicine 3: 67. Briefly, cells were plated in a 96-well plate at about 10^5 cells/ml one day prior to addition of compounds. Compounds were added to the cells in Ultraculture (Lonza, BE12-725F) supplemented with 1% glutamine (Invitrogen, 25030-024) for 18 h. The media were assayed by two sandwich ELISAs, for Aβ42 and Aβtotal. Toxicity of the compounds was assayed by WST-1 cell proliferation reagent (Roche, 1 644 807) according to the manufacturer's protocol.
To quantify the amount of Aβ42 in the cell supernatant, commercially available Enzyme-Linked-Immunosorbent-Assay (ELISA) kits were used (Innotest® β-Amyloid(1-42), Innogenetics N.V., Ghent, Belgium). The Aβ42 ELISA was performed essentially according to the manufacturer's protocol. Briefly, the standards (dilutions of synthetic Aβ1-42) were prepared in polypropylene Eppendorf with final concentrations of 8000 down to 3.9 pg/ml (1/2 dilution step). Samples, standards and blanks (100 μl) were added to the anti-Aβ42-coated plate supplied with the kit (the capture antibody selectively recognizes the C-terminal end of the antigen). The plate was allowed to incubate 3 h at 25° C. in order to allow formation of the antibody-amyloid complex. Following this incubation and subsequent wash steps a selective anti-Aβ-antibody conjugate (biotinylated 3D6) was added and incubated for a minimum of 1 hour (h) in order to allow formation of the antibody-Amyloid-antibody-complex. After incubation and appropriate wash steps, a Streptavidine-Peroxidase-Conjugate was added, followed 30 minutes later by an addition of 3,3′,5,5′-tetramethylbenzidine (TMB)/peroxide mixture, resulting in the conversion of the substrate into a coloured product. This reaction was stopped by the addition of sulfuric acid (0.9 N) and the colour intensity was measured by means of photometry with an ELISA-reader with a 450 nm filter.
To obtain the values reported in Table 3a, the data were calculated as percentage of the maximum amount of amyloid Beta 42 measured in the absence of the test compound. The sigmoidal dose response curves were analyzed using non-linear regression analysis with percentage of the control plotted against the log concentration of the compound. A 4-parameter equation was used to determine the IC50. The values reported in Table 3a are averaged IC50 values.
For orientation: ELISA stands for enzyme-linked immunosorbent assay.

In data set [3] the test system is Aβ42. Description: γ-secretase-modulating activity, Method 2: Aβ42 Alphalisa in supernatant of SKNBE2 cells carrying APP 695-wild type (Table 3b). Type of data set: cell-based. The settings on record: overnight. The procedure, abridged: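 Aβ42 in the supernatant was quantified by AlphaLISA sandwich (JRF/cAβ42/26 with JRF/AβN/25). Cells were wild-type APP695 SKNBE2, exposed to compound overnight at 37° C., 5% CO2. Data were normalised to untreated maximum and fitted with a four-parameter curve to give IC50.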

For data set [4], the system named is Aβtotal. Put plainly: γ-secretase-modulating activity, Method 1: Aβtotal sandwich ELISA in supernatant of SKNBE2 cells carrying APP 695-wild type. Type of data set: cell-based. The conditions noted are these: Table 3a, 18 h, averaged IC50 values. The method, then:
as §1, §2, §3
To quantify the amount of Aβtotal in the cell supernatant, samples and standards were added to a 6E10-coated plate. The plate was allowed to incubate overnight at 4° C. in order to allow formation of the antibody-amyloid complex. Following this incubation and subsequent wash steps a selective anti-Aβ-antibody conjugate (biotinylated 4G8) was added and incubated for a minimum of 1 h in order to allow formation of the antibody-Amyloid-antibody-complex. After incubation and appropriate wash steps, a Streptavidine-Peroxidase-Conjugate was added, followed 30 minutes later by an addition of Quanta Blu fluorogenic peroxidase substrate according to the manufacturer's instructions (Pierce Corp., Rockford, Ill.).

As to `COc1cc(-c2nc(C)n(-c3ccc(F)cc3)n2)ccc1-n1cnc(C)c1` [Compound 3], the melting point turned out to be 157.3 °C. The IC50 with Aβtotal [1] (Homo sapiens) is greater than 10000 nM. For the same compound, the IC50 in the data set on Aβ42 [2] (Homo sapiens) was determined as 490 nM. The compound also registered a half-inhibitory concentration (IC50) in the data set with Aβ42 [3] (Homo sapiens) of 417 nM. In addition, the IC50 with Aβtotal [4] (Homo sapiens) is greater than 3000 nM.

For the compound `COc1cc(-c2nc(C)c(-c3cccc(C(F)(F)F)c3)[nH]2)ccc1-n1cnc(C)c1` [Compound 12], the concentration for half-maximal inhibition (IC50) in the data set with Aβtotal [1] (Homo sapiens) was 3630 nM; in the data set with Aβ42 [2] (Homo sapiens) it was 90 nM; with Aβ42 [3] (Homo sapiens) it was 33 nM; in the data set with Aβtotal [4] (Homo sapiens) it was greater than 3000 nM.

Turning to `COc1cc(-c2nc(C)c(-c3cccc(C(F)(F)F)c3)n2C)ccc1-n1cnc(C)c1` [Compound 13], the half-inhibitory concentration (IC50) in the data set with Aβtotal [1] was greater than 10000 nM; in the data set on Aβ42 [2], 1050 nM; with Aβ42 [3], 724 nM; in the data set on Aβtotal [4], greater than 3000 nM.

Consider `COc1cc(-c2nc(-c3cccc(C(F)(F)F)c3)c(C)n2C)ccc1-n1cnc(C)c1` [Compound 14], for which the IC50 in the data set on Aβtotal [1] was 5250 nM; with Aβ42 [2], 500 nM; with Aβ42 [3] it was 282 nM; with Aβtotal [4] it was greater than 3000 nM.

In the case of `Cc1cn(-c2ccc(-c3nc(Nc4cccc(C(F)(F)F)c4)n[nH]3)cn2)cn1` [Compound 24], the half-inhibitory concentration (IC50) in the data set on Aβtotal [1] (Homo sapiens) was 6610 nM; in the data set on Aβ42 [2] (Homo sapiens) it was 1450 nM; with Aβ42 [3] (Homo sapiens) it was 1050 nM; in the data set with Aβtotal [4] (Homo sapiens), greater than 3000 nM.

In the case of `COc1cc(-c2nc(C)c(C)[nH]2)ccc1-n1cnc(C)c1` [Compound 25], the IC50 with Aβtotal [1] was greater than 10000 nM; with Aβ42 [2], 2510 nM; in the data set on Aβ42 [3], 6460 nM; with Aβtotal [4] it was greater than 3000 nM.

With `COc1cc(-c2nc(CC(C)C)c(C)[nH]2)ccc1-n1cnc(C)c1` [Compound 26], the figures for the IC50 in the data set on Aβ42 [2] and in the data set on Aβtotal [4] were 760 nM and greater than 3000 nM, respectively.

On to `COc1cc(-n2cnc(C)c2)ccc1-c1nc(-c2ccccc2)c(C)[nH]1` [Compound 27], for which the IC50 in the data set with Aβtotal [1] was greater than 3000 nM; in the data set with Aβ42 [2] it was 170 nM; in the data set on Aβ42 [3] it was less than 3000 nM; in the data set on Aβtotal [4], greater than 10000 nM.

As to `COc1cc(-c2nc(-c3ccccc3)c(C)[nH]2)ccc1-n1cnc(C)n1` [Compound 28], the half-maximal inhibitory concentration (IC50) in the data set on Aβtotal [1], with Aβ42 [2], in the data set with Aβ42 [3] and with Aβtotal [4] was greater than 3000 nM each time.

As for `CCCc1[nH]c(-c2ccc(-n3cnc(C)c3)c(OC)c2)nc1-c1ccccc1` [Compound 29], the IC50 is greater than 10000 nM in the data set on Aβtotal [1], 190 nM with Aβ42 [2], 170 nM with Aβ42 [3] and greater than 3000 nM in the data set on Aβtotal [4].

For the compound `COc1cc(-c2nc(Nc3cc(C(C)(C)O)ccc3F)n(C)n2)ccc1-n1cnc(C)c1` [Compound 175], the melting point worked out at 193.8 °C. Moreover, the half-maximal inhibitory concentration (IC50) in the data set with Aβtotal [1] (Homo sapiens) is greater than 10000 nM. This compound gave an IC50 in the data set with Aβ42 [3] (Homo sapiens) of 89 nM.

For `COc1ccc(CO)c(Nc2nc(-c3ccc(-n4cnc(C)c4)c(OC)c3)nn2C)c1` [Compound 200], the melting point came to 235.2 °C. The 50% inhibitory concentration (IC50) in the data set on Aβtotal [1] (Homo sapiens) was greater than 10000 nM. For the same compound, in the data set on Aβ42 [3] (Homo sapiens), 158 nM corresponded to half-maximal inhibition (IC50).

Compound `COc1cc(-c2nc(Nc3cccc(C(F)(F)F)n3)n(C)n2)ccc1-n1cnc(C)c1` [Compound 236] had a melting point of 240 °C. For the same compound, the half-inhibitory concentration (IC50) with Aβtotal [1] (Homo sapiens) was greater than 10000 nM. Besides, in the data set with Aβ42 [3] (Homo sapiens), the 50% inhibitory concentration (IC50) is 575 nM.

`COc1cc(-c2nc3n(n2)CCCC3c2ccc(F)cc2)ccc1-n1cnc(C)c1` (stereo not shown) [Compound 251] returned a melting point of 190.5 °C. In the data set with Aβtotal [1] (Homo sapiens), the IC50 was greater than 10000 nM. This compound also registered a concentration for half-maximal inhibition (IC50) in the data set on Aβ42 [3] (Homo sapiens) of 245 nM.

The compound `COc1cc(-c2nc3n(n2)CCCC3c2ccc(F)cc2C)ccc1-n1cnc(C)c1` (stereo not shown) [Compound 258] returned a melting point of 241.8 °C. Besides, in the data set with Aβtotal [1] (Homo sapiens), the IC50 was greater than 10000 nM. This compound came in with an IC50 in the data set with Aβ42 [3] (Homo sapiens) of 62 nM.

The compound `COc1cc(-c2nc3n(n2)CCN(C)C3c2ccccc2C(F)(F)F)ccc1-n1cnc(C)c1` (stereo not shown) [Compound 275] registered a melting point of 154.26 °C. For the same compound, the IC50 with Aβtotal [1] (Homo sapiens) was greater than 10000 nM. Further, inhibition in the data set on Aβ42 [3] (Homo sapiens) was half-maximal at 269 nM (IC50).

Regarding `COc1cc(-c2nc3n(n2)CCNC3c2ccccc2C(F)(F)F)ccc1-n1cnc(C)c1` (stereo not shown) [Compound 278], the melting point came to 183 °C. Further, the 50% inhibitory concentration (IC50) with Aβtotal [1] (Homo sapiens) is greater than 10000 nM. Further, in the data set with Aβ42 [3] (Homo sapiens), the IC50 was 398 nM.

The compound `COc1cc(-c2nc3n(n2)CCOC3c2cc(OC(F)(F)F)ccc2F)ccc1-n1cnc(C)c1` (stereo not shown) [Compound 281] came in with a melting point of 232.1 °C. In addition, the half-inhibitory concentration (IC50) in the data set on Aβtotal [1] (Homo sapiens) is greater than 10000 nM. This compound returned an IC50 with Aβ42 [3] (Homo sapiens) of 76 nM.

For the compound `COc1cc(-c2nc3nccc(-c4ccccc4C(F)(F)F)n3n2)ccc1-n1cnc(C)c1` [Compound 290], the melting point was 191 °C. The IC50 with Aβtotal [1] (Homo sapiens) was greater than 10000 nM. This compound registered an IC50 in the data set on Aβ42 [3] (Homo sapiens) of 224 nM.

`COc1cc(-c2nc3nc(-c4ccccc4C(F)(F)F)ccn3n2)ccc1-n1cnc(C)c1` [Compound 291] registered a melting point of 193.4 °C. In the data set with Aβtotal [1] (Homo sapiens), the 50% inhibitory concentration (IC50) was determined as 9770 nM. In the data set with Aβ42 [3] (Homo sapiens), half-maximal inhibition (IC50) required 45 nM.

`COc1cc(-c2nc3c(-c4ccccc4C(F)(F)F)nccn3n2)ccc1-n1cnc(C)c1` [Compound 294] came in with a melting point of 176.9 °C. Moreover, the IC50 in the data set with Aβtotal [1] (Homo sapiens) was greater than 10000 nM. Moreover, the IC50 with Aβ42 [3] (Homo sapiens) came out at 537 nM.

In turn, `COc1cc(-c2nc3cncc(-c4ccc(F)cc4C)n3n2)ccc1-n1cnc(C)c1` [Compound 295] displayed a melting point of 210.7 °C. Also, in the data set on Aβtotal [1] (Homo sapiens), the IC50 was greater than 10000 nM. Moreover, half-maximal inhibition in the data set on Aβ42 [3] (Homo sapiens) (IC50) required 537 nM.

On to `COc1cc(-c2nc(-c3ccccc3)c(C)[nH]2)ccc1-n1ncnc1C` [Compound 299], for which the IC50 with Aβtotal [1] is greater than 10000 nM; in the data set with Aβ42 [2], greater than 3000 nM; with Aβ42 [3] it was 8130 nM; with Aβtotal [4], greater than 3000 nM.
